Experimental data as given in patent US20240034743A9, “TRICYCLIC COMPOUNDS AS EGFR INHIBITORS” (QILU PHARMACEUTICAL CO., LTD., priority 2020, published 2024).
Read-outs that look alike come from different tables or passages of the source.

Tests used:
EGFR WT (wild type EGFR) = EGFR WT (wild type EGFR) (Homo sapiens (Human), UniProt P00533); assay: In vitro enzymatic TR-FRET (HTRF KinEASE-TK) kinase assay, EGFR WT; format: biochemical
Procedure: (I) In Vitro Enzymatic Experiment for EGFR WT and EGFR L858R/T790M/C797S
In the assay, the inhibition effect of the compound on the kinase activity of EGFR WT (wild type EGFR) and EGFR L858R/T790M/C797S was tested by adopting a time-resolved fluorescence resonance energy transfer (TR-FRET) method, and half maximal inhibitory concentration IC50 of the compound on the kinase activity of EGFR was obtained.
EGFR recombinase and EGFR L858R/T790M/C797S recombinase, purchased from Signalchem.
HTRF KinEASE-TK kit, purchased from Cisbio.
DTT, MnCl2, and MgCl2, purchased from Sigma.
ATP, purchased from Promega.
(§1) Brigatinib, purchased from Selleck.
1) 1× working solution was prepared: 5 mM MgCl2; 1 mM DTT; 1 mM MnCl2 and 1× kinase buffer (in kit).
2) […] of gradiently-diluted compound was transferred to a 384-well plate using Echo 550 (Labcyte).
3) 5 μL of 2× EGFR WT or EGFR L858R/T790M/C797S recombinase solution was added to the 384-well plate, and the plate was incubated at room temperature for 10 min.
4) 5 μL of 2× TK-substrate-biotin substrate solution (containing ATP) was added to the 384-well plate, and the plate was incubated at room temperature for 40 min.
5) 5 μL of assay solution containing Sa-XL 665 HTRF and 5 μL of TK-antibody-Cryptatewas were added to the plate, and the plate was incubated at room temperature for 1 h.
6) The fluorescence signal values at 615 nm and 665 nm were measured for each well using an Envision microplate reader (PerkinElmer).
7) The ratio of fluorescence signal values at 665 nm and 615 nm was calculated for each well.
8) Data analysis was performed using GraphPad Prism software to give the IC50 for compounds.

A431 cells (EGFR WT) = assay: A431 cell proliferation inhibition assay (CellTiter-Glo); format: cell-based; details: Homo sapiens
Procedure: A431 Cell Proliferation Inhibition Assay
In the assay, the inhibition effect of the compounds on the proliferation of A431 cells was tested by adopting a CellTiter-Glo method, and the concentration IC50 of the compound for inhibiting half maximal growth of cells was obtained.
A431 cells, purchased from ATCC.
DMEM medium, fetal bovine serum (FBS), and Penicillin-Streptomycin, purchased from GIBCO.
as §1
(§2) CellTiter-Glo reagent, purchased from Promega.
1) A431 cells were seeded in a 384-well plate at a density of 800 cells/well with 30 μL/well, and the plate was cultured in a cell incubator for 24 h (37° C., 5% CO2).
(§3) 2) Day 0: […] of gradiently-diluted compounds to be tested with a final concentration of DMSO of 0.1% was added to plate using Echo, and the plate was incubated in a cell incubator for 72 h (37° C., 5% CO2). […] of DMSO was added into each well in blank control group.
(§4) 3) Day 3: 30 μL Cell Titer-Glo reagent was added to each well, and the plate was in the dark under room temperature for 30 min.
(§5) 4) The chemiluminescent signal was detected by an Envision plate reader (PerkinElmer).
(§6) 5) Data analysis was performed using GraphPad Prism software to give the IC50 for compounds.

[1] = system: Ba/F3_Del19/T790M/C797S cells; assay: Ba/F3_Del19/T790M/C797S cell proliferation inhibition assay (CellTiter-Glo); format: cell-based; details: Mus musculus
Procedure: Ba/F3_Del19/T790M/C797S Cell Proliferation Inhibition Assay
In the assay, the inhibition effect of the compounds on the proliferation of Ba/F3_Del19/T790M/C797S cells was tested by adopting a CellTiter-Glo method, and the concentration IC50 of the compound for inhibiting half maximal growth of cells was obtained.
Ba/F3_Del19/T790M/C797S, purchased from Kyinno Biotechnology Co., Ltd. 1640 medium, fetal bovine serum (FBS), Penicillin-Streptomyces, and GlutaMAX-I Supplement, purchased from GIBCO.
as §1, §2
1) Ba/F3_Del19/T790M/C797S cells were seeded in a 384-well plate at a density of 700 cells/well with 30 μL/well.
as §3, §4, §5
Data analysis was performed using GraphPad Prism 6 software to give the IC50 for compounds.

[2] = system: Ba/F3_L858R/T790M/C797S cells; assay: Ba/F3_L858R/T790M/C797S cell proliferation inhibition assay (CellTiter-Glo); format: cell-based; details: Mus musculus
Procedure: Ba/F3_L858R/T790M/C797S Cell Proliferation Inhibition Assay
In the assay, the inhibition effect of the compounds on the proliferation of Ba/F3_L858R/T790M/C797S cells was tested by adopting a CellTiter-Glo method, and the concentration IC50 of the compound for inhibiting half maximal growth of cells was obtained.
Ba/F3_L858R/T790M/C797S cells were constructed by Pharmaron Beijing Co., Ltd.
1640 medium, fetal bovine serum (FBS), Penicillin-Streptomyces, and GlutaMAX-I Supplement, purchased from GIBCO.
as §1, §2
1) Ba/F3_L858R/T790M/C797S cells were seeded in a 384-well plate at a density of 700 cells/well with 30 μL/well.
as §3, §4, §5, §6

[3] = kinase activity, TR-FRET, read-out: EGFR (WT) IC50
[4] = A-431, cell proliferation, 72 h, CellTiter-Glo, read-out: A431 EGFR WT IC50
[5] = BaF3, cell proliferation, 72 h, CellTiter-Glo, read-out: Ba/F3 (Del19/T790M/C797S) IC50
[6] = BaF3, cell proliferation, 72 h, CellTiter-Glo, read-out: Ba/F3 (L858R/T790M/C797S) IC50
[7] = A-431, 72 h, read-out: A431 EGFR WT IC50(nM)
[8] = BaF3, 72 h, read-out: Ba/F3 (Del19/T790M/C797S) IC50(nM)
[9] = BaF3, 72 h, read-out: Ba/F3 (L858R/T790M/C797S) IC50(nM)

Sequence of EGFR WT (wild type EGFR) (P00533 25-1210): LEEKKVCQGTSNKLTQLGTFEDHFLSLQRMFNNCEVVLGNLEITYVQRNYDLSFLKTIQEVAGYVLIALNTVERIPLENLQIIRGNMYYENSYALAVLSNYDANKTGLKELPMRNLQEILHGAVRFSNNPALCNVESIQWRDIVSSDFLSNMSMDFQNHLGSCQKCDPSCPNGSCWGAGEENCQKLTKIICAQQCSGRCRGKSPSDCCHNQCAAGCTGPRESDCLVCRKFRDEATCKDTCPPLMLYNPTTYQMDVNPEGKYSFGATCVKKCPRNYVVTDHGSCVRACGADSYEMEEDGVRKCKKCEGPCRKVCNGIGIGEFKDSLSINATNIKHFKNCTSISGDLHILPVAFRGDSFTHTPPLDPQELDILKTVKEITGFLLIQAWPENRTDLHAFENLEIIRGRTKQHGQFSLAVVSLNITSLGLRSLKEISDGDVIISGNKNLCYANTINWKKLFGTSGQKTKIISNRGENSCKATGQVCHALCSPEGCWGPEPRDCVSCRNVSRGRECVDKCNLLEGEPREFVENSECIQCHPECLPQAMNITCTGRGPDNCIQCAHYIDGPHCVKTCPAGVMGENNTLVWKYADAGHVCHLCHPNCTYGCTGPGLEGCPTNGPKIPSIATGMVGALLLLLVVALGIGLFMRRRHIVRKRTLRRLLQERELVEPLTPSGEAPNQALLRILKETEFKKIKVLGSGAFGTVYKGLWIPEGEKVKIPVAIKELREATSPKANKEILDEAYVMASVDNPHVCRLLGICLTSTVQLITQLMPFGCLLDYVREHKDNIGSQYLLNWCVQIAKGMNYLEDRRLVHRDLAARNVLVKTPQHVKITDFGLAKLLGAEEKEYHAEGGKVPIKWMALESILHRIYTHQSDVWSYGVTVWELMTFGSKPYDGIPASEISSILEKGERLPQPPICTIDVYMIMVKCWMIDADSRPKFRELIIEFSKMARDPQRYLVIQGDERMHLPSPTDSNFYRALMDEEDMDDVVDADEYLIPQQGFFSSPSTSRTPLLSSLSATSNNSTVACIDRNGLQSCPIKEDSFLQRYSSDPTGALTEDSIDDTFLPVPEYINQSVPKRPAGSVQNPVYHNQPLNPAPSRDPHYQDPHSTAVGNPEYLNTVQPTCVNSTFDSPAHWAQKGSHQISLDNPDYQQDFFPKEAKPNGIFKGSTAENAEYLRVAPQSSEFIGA

Row | SMILES | IC50 (EGFR WT (wild type EGFR); [3]) | IC50 (A431 cells (EGFR WT); [4]) | IC50 [1, 5] | IC50 [2, 6] | IC50 (EGFR WT (wild type EGFR)) | IC50 (A431 cells (EGFR WT); [7]) | IC50 [1, 8] | IC50 [2, 9]
1 | COc1nc2c(cc1Nc1ncc(Br)c(Nc3ccc4nccnc4c3NS(C)(=O)=O)n1)-c1cnn(C)c1CCN2 [Compound 81] | 1 to 10 nM | 100 to 1000 nM | < 10 nM | < 10 nM | – | – | – | –
2 | COc1cc2c(cc1Nc1ncc(Br)c(Nc3ccccc3NS(C)(=O)=O)n1)-c1cnn(C)c1CCN2C(C)C [Compound 54] | 1 to 10 nM | 100 to 1000 nM | < 10 nM | 10 to 50 nM | – | – | – | –
3 | COc1cc2c(cc1Nc1ncc(Br)c(Nc3ccc4nccnc4c3CNS(C)(=O)=O)n1)-c1cnn(C)c1CCN2C(C)C [Compound 137] | 1 to 10 nM | 100 to 1000 nM | 10 to 50 nM | 10 to 50 nM | – | – | – | –
4 | COc1cc2c(cc1Nc1ncc(Br)c(Nc3ccc4nccnc4c3P(C)(C)=O)n1)-c1cnn(C)c1CCC2O (stereo not shown) [Compound 24] | 1 to 10 nM | 100 to 1000 nM | < 10 nM | < 10 nM | – | – | – | –
5 | COc1cc2c(cc1Nc1ncc(Br)c(Nc3ccnc(C)c3P(C)(C)=O)n1)-c1cnn(C)c1CCN2C(C)C [Compound 111] | 1 to 10 nM | 100 to 1000 nM | < 10 nM | 10 to 50 nM | – | – | – | –
6 | COc1cc2c(cc1Nc1ncc(Br)c(Nc3ccccc3P(C)(C)=S)n1)-c1cnn(C)c1CCN2C1CCN(C(C)C)CC1 [Compound 105] | – | – | – | – | 1 to 10 nM | 100 to 1000 nM | < 10 nM | 10 to 50 nM
7 | COc1cc2c(cc1Nc1ncc(C)c(Nc3ccccc3P(C)(C)=O)n1)-c1cnn(C)c1CCN2C [Compound 7] | 1 to 10 nM | 100 to 1000 nM | < 10 nM | < 10 nM | – | – | – | –
8 | COc1cc2c(cc1Nc1nc(Nc3ccccc3P(C)(C)=O)c3cc[nH]c3n1)-c1cnn(C)c1CCN2C [Compound 36] | 1 to 10 nM | 100 to 1000 nM | < 10 nM | < 10 nM | – | – | – | –
9 | CNC(=O)c1c(Nc2nc(Nc3cc4c(cc3OC)N(C(C)C)CCc3c-4cnn3C)ncc2Br)ccc2nccnc12 [Compound 129] | 1 to 10 nM | 100 to 1000 nM | 10 to 50 nM | 10 to 50 nM | – | – | – | –
10 | COc1cc2c(cc1Nc1ncc(Br)c(Nc3ccc4nccnc4c3P(C)(C)=O)n1)-c1cn(C)nc1CCN2C [Compound 8] | 1 to 10 nM | 50 to 100 nM | < 10 nM | < 10 nM | – | – | – | –
11 | COc1cc2c(cc1Nc1ncc(Br)c(Nc3cccc4c3NS(=O)(=O)C4)n1)-c1cnn(C)c1CCN2C(C)C [Compound 132] | 10 to 50 nM | > 1000 nM | 10 to 50 nM | 10 to 50 nM | – | – | – | –
12 | CCN1CCc2c(cnn2C)-c2cc(Nc3ncc(Br)c(Nc4ccccc4P(C)(C)=O)n3)c(OC)cc21 [Compound 20] | 1 to 10 nM | 100 to 1000 nM | < 10 nM | < 10 nM | – | – | – | –
13 | COc1cc2c(cc1Nc1ncc(Br)c(Nc3ccc4nccnc4c3NS(C)(=O)=O)n1)-c1cnn(C)c1CCN2C#N [Compound 113] | 1 to 10 nM | 100 to 1000 nM | < 10 nM | 10 to 50 nM | – | – | – | –
14 | COc1cc2c(cc1Nc1ncc(Br)c(Nc3ccccc3P(C)(C)=O)n1)-c1ccnn1CCN2C [Compound 29] | 10 to 50 nM | 100 to 1000 nM | 10 to 50 nM | 10 to 50 nM | – | – | – | –
15 | COc1cc2c(cc1Nc1ncc(Br)c(Nc3ccccc3S(=O)(=O)N(C)C)n1)-c1cnn(C)c1CCN2C(C)C [Compound 126] | 1 to 10 nM | > 1000 nM | 100 to 1000 nM | 100 to 1000 nM | – | – | – | –
16 | CCn1ncc2c1CCN(C)c1cc(OC)c(Nc3ncc(Br)c(Nc4ccccc4P(C)(C)=O)n3)cc1-2 [Compound 39] | 10 to 50 nM | – | – | – | – | 100 to 1000 nM | 10 to 50 nM | 10 to 50 nM
17 | COc1cc2c(cc1Nc1ncc(Br)c(Nc3ccc4nccnc4c3P(C)(C)=O)n1)-c1cnn(C)c1CCN2 [Compound 16] | 1 to 10 nM | – | – | – | – | 50 to 100 nM | < 10 nM | < 10 nM
18 | COc1cc2c(cc1Nc1ncc(Br)c(Nc3ccc4nccnc4c3P(C)(C)=O)n1)-c1cnn(C)c1CN(C)C2 [Compound 11] | 1 to 10 nM | 100 to 1000 nM | < 10 nM | < 10 nM | – | – | – | –
19 | COc1cc2c(cc1Nc1ncc(Br)c(Nc3ccc4nccnc4c3N(C(C)C)S(C)(=O)=O)n1)-c1cnn(C)c1CCN2 [Compound 123] | – | – | – | – | 1 to 10 nM | 100 to 1000 nM | < 10 nM | < 10 nM
20 | COc1cc2c(cc1Nc1ncc(Br)c(Nc3ccccc3P(C)(C)=O)n1)-c1cn(CCN(C)C)nc1CCN2C(C)C [Compound 56] | 1 to 10 nM | – | – | – | – | 100 to 1000 nM | < 10 nM | 10 to 50 nM
21 | COc1cc2c(cc1Nc1ncc(Br)c(Nc3ccc4nccnc4c3N(C)S(C)(=O)=O)n1)-c1cnn(C)c1CCN2C1CCOCC1 [Compound 138] | 1 to 10 nM | 100 to 1000 nM | < 10 nM | < 10 nM | – | – | – | –
22 | CCN1CCc2c(cnn2C)-c2cc(Nc3ncc(C)c(Nc4ccccc4P(C)(C)=O)n3)c(OC)cc21 [Compound 19] | 1 to 10 nM | 100 to 1000 nM | < 10 nM | 10 to 50 nM | – | – | – | –
23 | COc1cc2c(cc1Nc1ncc(Br)c(Nc3ccccc3P(C)(C)=O)n1)-c1cnn(C)c1CCN2C [Compound 2] | 1 to 10 nM | 50 to 100 nM | < 10 nM | < 10 nM | – | – | – | –
24 | COc1cc2c(cc1Nc1ncc(Br)c(Nc3ccccc3P(C)(C)=O)n1)-c1cnn(C)c1CCN2C1CCOCC1 [Compound 87] | 1 to 10 nM | 100 to 1000 nM | < 10 nM | < 10 nM | – | – | – | –
25 | COc1cc2c(cc1Nc1ncc(Cl)c(Nc3ccc4nccnc4c3NS(C)(=O)=O)n1)-c1cnn(C)c1CCN2C(C)C [Compound 103] | 1 to 10 nM | 100 to 1000 nM | < 10 nM | < 10 nM | – | – | – | –
26 | COc1cc2c(cc1Nc1ncc(Br)c(Nc3ccc4nccnc4c3P(C)(C)=O)n1)-c1cnn(C)c1CNC2 [Compound 71] | 1 to 10 nM | 50 to 100 nM | < 10 nM | < 10 nM | – | – | – | –
27 | COc1cc2c(cc1Nc1ncc(Br)c(Nc3ccc4nccnc4c3P(C)(C)=O)n1)-c1cnn(C)c1CC(O)C2 (stereo not shown) [Compound 31] | 1 to 10 nM | 100 to 1000 nM | < 10 nM | 10 to 50 nM | – | – | – | –
28 | COc1cc2c(cc1Nc1ncc(Br)c(Nc3cccnc3P(C)(C)=O)n1)-c1cnn(C)c1CCN2C [Compound 44] | 1 to 10 nM | 100 to 1000 nM | < 10 nM | 10 to 50 nM | – | – | – | –
